Data: US20240158446A1, “CYCLIC COMPOUND HAVING SELECTIVE INHIBITORY ACTION ON KRAS OVER HRAS AND NRAS” (CHUGAI SEIYAKU KABUSHIKI KAISHA, priority 2021, published 2024)
*1 amine or outer side, *2 acyl side, *3 side chain or, on linkers, in order; H or OH if unused. Where a SMILES comes first, the peptide text is derived from it. Bridges are numbered along the chain shown (N, C = ends). [ ]: non-standard residue; d: D form. The star is where a group is joined. hPhe(3-Cl-4-CF3) = N[C@@H](CCc1ccc(C(F)(F)F)c(Cl)c1)C(=O)O; X46 = CCCCN([C@@H](Cc1ccc(C)cc1)C(=O)[*:2])[*:1]; NMeGly(cPent) = CN[C@H](C(=O)O)C1CCCC1; NMeD = CN[C@@H](CC(=O)O)C(=O)O; NMeL = CN[C@@H](CC(C)C)C(=O)O; Morpholide = C1CN(*)CCO1; NMeA = CN[C@@H](C)C(=O)O; Ac5c = NC1(C(=O)O)CCCC1; Aze = O=C(O)[C@@H]1CCN1; Sar = CNCC(=O)O

Legend:
[1] = biological target: GDP-bound NRAS wild-type protein (Homo sapiens, UniProt P01111); assay: Binding to NRAS by surface plasmon resonance (SPR), Single Cycle Kinetics; conditions: for NRAS/KRAS (ratio of KD value with respect to GDP-bound NRAS wild-type protein to KD value with respect to KRAS): SPR KD ratio NRAS/KRAS, class symbols
Sequence of GDP-bound NRAS wild-type protein (P01111 whole entry): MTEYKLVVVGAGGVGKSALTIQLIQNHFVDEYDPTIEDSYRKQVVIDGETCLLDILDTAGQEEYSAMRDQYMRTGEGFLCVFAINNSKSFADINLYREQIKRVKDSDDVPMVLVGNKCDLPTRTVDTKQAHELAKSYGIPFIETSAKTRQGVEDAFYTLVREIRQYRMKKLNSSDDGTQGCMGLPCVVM

[2] = biological target: GDP-bound HRAS wild-type protein (Homo sapiens, UniProt P01112); assay: Binding to HRAS by surface plasmon resonance (SPR), Single Cycle Kinetics; conditions: for HRAS/KRAS (ratio of KD value with respect to GDP-bound HRAS wild-type protein to KD value with respect to KRAS): SPR KD ratio HRAS/KRAS, class symbols
Sequence of GDP-bound HRAS wild-type protein (P01112 whole entry): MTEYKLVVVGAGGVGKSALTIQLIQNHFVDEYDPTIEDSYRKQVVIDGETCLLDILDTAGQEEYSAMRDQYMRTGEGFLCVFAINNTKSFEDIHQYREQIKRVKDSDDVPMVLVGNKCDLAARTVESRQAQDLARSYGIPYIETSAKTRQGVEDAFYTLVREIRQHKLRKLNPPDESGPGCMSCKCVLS

[3] = SPR, GDP-bound NRAS wild-type protein vs GDP-bound KRAS wild-type protein
[4] = SPR, GDP-bound HRAS wild-type protein vs GDP-bound KRAS wild-type protein

Row | SMILES | NRAS/KRAS (ratio of KD value for NRAS to KD value for KRAS) [1, 3] | HRAS/KRAS (ratio of KD value for HRAS to KD value for KRAS) [2, 4] | other results
1 | CCO[C@@H]1C[C@H]2C(=O)NC3(CCC3)C(=O)N(C)[C@@H](C(CC)CC)C(=O)N(C)[C@H](C(=O)N(C)C)CC(=O)N(C)[C@@H](CC3CC3)C(=O)N[C@@H]([C@@H](C)CC)C(=O)N(C)CC(=O)N(C)[C@H]3C/C=C\CCN(C3=O)[C@@H](Cc3ccc(F)cc3C)C(=O)N(C)CC(=O)N[C@@H](CCc3cc(F)c(C(F)(F)F)c(F)c3)C(=O)N2C1 [PP1514] |  |  | NRAS/KRAS (ratio of KD value for NRAS to KD value for KRAS) ([1]; SPR, GDP-bound NRAS wild-type protein vs GDP-bound KRAS wild-type protein, KD ratio class): A (a compound having 10 or more and less than 20 is denoted as A); HRAS/KRAS (ratio of KD value for HRAS to KD value for KRAS) ([2]; SPR, GDP-bound HRAS wild-type protein vs GDP-bound KRAS wild-type protein, KD ratio class): A (a compound having 10 or more and less than 20 is denoted as A)
2 | CCO[C@@H]1C[C@H]2C(=O)NC3(CCC3)C(=O)N(C)[C@@H](C3CCCC3)C(=O)N(C)[C@H](C(=O)N(C)C)CC(=O)N(C)[C@@H](CC3CCCC3)C(=O)N[C@@H]([C@@H](C)CC)C(=O)N(C)CC(=O)N(C)[C@H]3C/C=C\CCN(C3=O)[C@@H](Cc3ccc(C)cc3)C(=O)N(C)CC(=O)N[C@@H](CCc3ccc(C4CC4)c(Cl)c3)C(=O)N2C1 [PP2684] |  |  | NRAS/KRAS (ratio of KD value with respect to GDP-bound NRAS wild-type protein to KD value with respect to KRAS) [1]: A (a compound having 10 or more and less than 20 is denoted as A); HRAS/KRAS (ratio of KD value with respect to GDP-bound HRAS wild-type protein to KD value with respect to KRAS) [2]: A (a compound having 10 or more and less than 20 is denoted as A)
3 | CCO[C@@H]1C[C@H]2C(=O)NC3(CCC3)C(=O)N(C)[C@@H](C3CCCC3)C(=O)N(C)[C@H](C(=O)N3C4CCC3COC4)CC(=O)N(C)[C@@H](CC)C(=O)N[C@@H]([C@@H](C)CC)C(=O)N(C)CC(=O)N(C)[C@H]3C/C=C\CCN(C3=O)[C@@H](Cc3ccc(C(F)(F)F)cc3)C(=O)N(C)CC(=O)N[C@@H](CCc3cc(F)c(C(F)(F)F)c(F)c3)C(=O)N2C1 [PP1093] | AA (a compound having 20 or more is denoted as AA) | A (a compound having 10 or more and less than 20 is denoted as A) | 
4 | CCO[C@@H]1C[C@H]2C(=O)NC3(CC(C)(C)C3)C(=O)N(C)[C@@H](C(CC)CC)C(=O)N(C)[C@H](C(=O)N(C)C)CC(=O)N(C)[C@@H](C(C)C)C(=O)N[C@@H]([C@@H](C)CC)C(=O)N(C)CC(=O)N(C)[C@H]3C/C=C\CCN(C3=O)[C@@H](Cc3ccc(C)cc3)C(=O)N(C)CC(=O)N[C@@H](CCc3ccc(C(F)(F)F)c(Cl)c3)C(=O)N2C1 [PP2158] | AA (a compound having 20 or more is denoted as AA) | A (a compound having 10 or more and less than 20 is denoted as A) | 
5 | CCO[C@@H]1C[C@H]2C(=O)NC3(CCC3)C(=O)N(C)[C@@H](C3CCCC3)C(=O)N(CC)[C@H](C(=O)N3CCOCC3)CC(=O)N(C)[C@@H](CC(C)C)C(=O)N[C@@H]([C@@H](C)CC)C(=O)N(C)CC(=O)N(C)[C@H]3CCCCCN(C3=O)[C@@H](Cc3ccc(C(F)(F)F)cc3)C(=O)N(C)CC(=O)N[C@@H](CCc3cc(F)c(C(F)(F)F)c(F)c3)C(=O)N2C1 [PP0638] |  |  | NRAS/KRAS (ratio of KD value with respect to NRAS to KD value with respect to KRAS) [1, 3]: B (a compound having 3 or more and less than 10 is denoted as B); HRAS/KRAS (ratio of KD value with respect to HRAS to KD value with respect to KRAS) [2, 4]: B (a compound having 3 or more and less than 10 is denoted as B)
6 | CCO[C@@H]1C[C@H]2C(=O)NC3(CCC3)C(=O)N(C)[C@@H](C3CCCC3)C(=O)N(C)[C@H](C(=O)N(C)C)CC(=O)N(C)[C@@H](CC3CCCC3)C(=O)N[C@@H]([C@@H](C)CC)C(=O)N(C)CC(=O)N(C)[C@H]3C/C=C\CCN(C3=O)[C@@H](Cc3ccc(C)cc3)C(=O)N(C)CC(=O)N[C@@H](CCc3ccc(CC)c(F)c3)C(=O)N2C1 [PP2686] |  |  | NRAS/KRAS (ratio of KD value with respect to GDP-bound NRAS wild-type protein to KD value with respect to KRAS) [1]: A (a compound having 10 or more and less than 20 is denoted as A); HRAS/KRAS (ratio of KD value with respect to GDP-bound HRAS wild-type protein to KD value with respect to KRAS) [2]: A (a compound having 10 or more and less than 20 is denoted as A)
7 | CCO[C@@H]1C[C@H]2C(=O)NC3(CCC3)C(=O)N(C)[C@@H](C3CCCC3)C(=O)N(C)[C@H](C(=O)N(C)CC)CC(=O)N(C)[C@H]3CCCCCCc4ccc(cc4)C[C@@H](C(=O)N(C)CC(=O)N[C@@H](CCc4ccc(C(F)(F)F)c(OC)c4)C(=O)N2C1)N1CC/C=C\C[C@@H](C1=O)N(C)C(=O)CN(C)C(=O)[C@H]([C@@H](C)CC)NC3=O [PP2263] | A (a compound having 10 or more and less than 20 is denoted as A) | A (a compound having 10 or more and less than 20 is denoted as A) | 
8 | CCOC[C@H]1C(=O)N[C@@H]([C@@H](C)CC)C(=O)N(C2CC2)CC(=O)N(C)[C@H]2C/C=C\CCN(C2=O)[C@@H](CC2CCC(F)(F)CC2)C(=O)N(C)CC(=O)N[C@@H](CCc2ccc(C(F)(F)F)c(OC)c2)C(=O)N2C[C@H](OCC)C[C@H]2C(=O)N(C)C2(CCC2)C(=O)N(C)[C@@H](C(CC)CC)C(=O)N(C)[C@H](C(=O)N(C)C)CC(=O)N1C [PP2351] | A (a compound having 10 or more and less than 20 is denoted as A) | A (a compound having 10 or more and less than 20 is denoted as A) | 
9 | CC[C@H](C)[C@@H]1NC(=O)[C@H](CC(C)C)N(C)C(=O)C[C@@H](C(=O)N2CCOCC2)N(C)C(=O)[C@H](C2CCCC2)N(C)C(=O)C2(CCC2)NC(=O)[C@@H]2C[C@@H](OCC3CC3)CN2C(=O)[C@H](CCc2cc(F)c(C(F)(F)F)c(F)c2)NC(=O)CN(C)C(=O)[C@H](Cc2ccc(C(F)(F)F)cc2)N2CCCC[C@@H](C2=O)N(C)C(=O)CN(C)C1=O [PP1000] | B (a compound having 3 or more and less than 10 is denoted as B) | B (a compound having 3 or more and less than 10 is denoted as B) | 
10 | CCC[C@H]1C(=O)N[C@@H]([C@@H](C)CC)C(=O)N(C)CC(=O)N(C)[C@H]2C/C=C\CCN(C2=O)[C@@H](Cc2ccc(C(F)(F)F)cc2)C(=O)N(C)CC(=O)N[C@@H](CCc2cc(Cl)c(C(F)(F)F)c(Cl)c2)C(=O)N2C[C@H](OCC)C[C@H]2C(=O)NC2(CC(C)(C)C2)C(=O)N(C)[C@@H](C2CCCC2)C(=O)N(C)[C@H](C(=O)N(C)C)CC(=O)N1C [PP2859] |  |  | NRAS/KRAS (ratio of KD value with respect to GDP-bound NRAS wild-type protein to KD value with respect to KRAS) [1]: A (a compound having 10 or more and less than 20 is denoted as A); HRAS/KRAS (ratio of KD value with respect to GDP-bound HRAS wild-type protein to KD value with respect to KRAS) [2]: A (a compound having 10 or more and less than 20 is denoted as A)
11 | CCCO[C@@H]1CCN2C(=O)[C@H](CCc3cc(F)c(C(F)(F)F)c(F)c3)NC(=O)CN(C)C(=O)[C@H](Cc3ccc(C(F)(F)F)cc3)N3CCCCC[C@@H](C3=O)N(C)C(=O)CN(C)C(=O)[C@H]([C@@H](C)CC)NC(=O)[C@H](CC(C)C)N(C)C(=O)C[C@@H](C(=O)N3CCOCC3)N(C)C(=O)[C@H](C3CCCC3)N(C)C(=O)C3(CCC3)NC(=O)[C@H]12 [PP1083] | B (a compound having 3 or more and less than 10 is denoted as B) | B (a compound having 3 or more and less than 10 is denoted as B) | 
12 | CCCCN1C(=O)[C@@H]2CCN2C(=O)[C@H](C)N(C)C(=O)[C@H]([C@@H](C)CC)NC(=O)[C@H](CC(C)C)N(C)C(=O)C[C@@H](C(=O)N2CCOCC2)N(C)C(=O)[C@H](C2CCCC2)N(C)C(=O)C2(CCCC2)NC(=O)[C@@H]2CCCN2C(=O)[C@H](CCc2ccc(C(F)(F)F)c(Cl)c2)NC(=O)CN(C)C(=O)[C@@H]1Cc1ccc(C)cc1 [PP0055] ([NMeL]I[NMeA][Aze][X46][Sar][hPhe(3-Cl-4-CF3)]P[Ac5c][NMeGly(cPent)][NMeD]-Morpholide; lactam N-11) | C (A compound having a KD ratio of 0.1 or more and less than 3 is denoted as C) | C (A compound having a KD ratio of 0.1 or more and less than 3 is denoted as C) | 
